Experimental data taken from US11046680B1, “Heteroaryl-substituted triazoles as APJ receptor agonists” (priority 2016, dated 2021).

target: human APJ receptor (Homo sapiens (Human), UniProt P35414); test: biochemical; type: biochemical; settings: [35S]GTPγS binding, CHO membranes expressing human APJ receptor; read-out: Activity hAPJ SPA EC50 IP
Method in brief: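 Membranes of a stable CHO line carrying human APJ (pFLAG-CMV-3) were used in a GTPγS binding format; buffer GDP, MgCl2 and NaCl were optimized, and plates were read after 90 min at RT.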

Sequence of human APJ receptor (P35414 whole entry): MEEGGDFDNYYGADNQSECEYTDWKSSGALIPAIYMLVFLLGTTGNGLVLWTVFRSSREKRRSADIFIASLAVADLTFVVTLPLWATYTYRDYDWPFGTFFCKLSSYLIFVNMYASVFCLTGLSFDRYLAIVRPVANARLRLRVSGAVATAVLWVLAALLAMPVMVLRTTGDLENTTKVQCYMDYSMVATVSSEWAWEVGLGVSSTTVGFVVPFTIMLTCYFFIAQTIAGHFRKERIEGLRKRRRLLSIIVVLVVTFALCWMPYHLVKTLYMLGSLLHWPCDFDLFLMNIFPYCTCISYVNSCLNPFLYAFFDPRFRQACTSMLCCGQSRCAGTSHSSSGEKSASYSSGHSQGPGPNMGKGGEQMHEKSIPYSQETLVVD

| SMILES | EC50 [nM] |
| --- | --- |
| COc1cccc(OC)c1-n1c(NS(=O)(=O)[C@@H](C)[C@H](OC)c2ncc(C)cn2)nnc1-c1cnn2ccccc12 [Example 415.0, (1R,2S)-N-(4-(2,6-dimethoxyphenyl)-5-(pyrazolo[1,5-a]pyridin-3-yl)-4H-1,2,4-triazo1-3-yl)-1-methoxy-1-(5-methylpyrimidin-2-yl)propane-2-sulfonamide] | 5.2 |
| COc1cccc(OC)c1-n1c(NS(=O)(=O)[C@@H](C)[C@H](OC)c2ncc(C)cn2)nnc1-c1cnn2ccc(C)cc12 [Example 416.0, (1R,2S)-N-(4-(2,6-dimethoxyphenyl)-5-(5-methylpyrazolo[1,5-a]pyridin-3-yl)-4H-1,2,4-triazol-3-yl)-1-methoxy-1-(5-methylpyrimidin-2-yl)propane-2-sulfonamide] | 8.4 |
| COc1cccc(OC)c1-n1c(NS(=O)(=O)[C@@H](C)[C@H](OC)c2ncc(C)cn2)nnc1-c1ccnc2ccccc12 [Example 417.0] | 510 |
| COc1cccc(OC)c1-n1c(NS(=O)(=O)[C@@H](C)[C@H](OC)c2ncc(Cl)cn2)nnc1-c1n[nH]c2ccc(C)cc12 [Example 418.0, (1R,25)-1-(5-chloropyrimidin-2-yl)-N-(4-(2,6-dimethoxyphenyl)-5-(5-methyl-1H-indazol-3-yl)-4H-1,2,4-triazol-3-yl)-1-methoxypropane-2-sulfonamide] | 5.5 |
| COc1cccc(OC)c1-n1c(NS(=O)(=O)[C@@H](C)[C@H](OC)c2ncc(Cl)cn2)nnc1-c1c[nH]c2ncccc12 [Example 419.0, (1R,2S)-1-(5-chloropyrimidin-2-yl)-N-(4-(2,6-dimethoxyphenyl)-5-(1H-pyrrolo[2,3-b]pyridin-3-yl)-4H-1,2,4-triazol-3-yl)-1-methoxypropane-2-sulfonamide] | 2.4 |
| COc1ncnc(OC)c1-n1c(NS(=O)(=O)[C@@H](C)[C@H](OC)c2ncc(Cl)cn2)nnc1-c1noc2ccccc12 [Example 420.0, (1R,2S)-N-(5-(benzo[d]isoxazol-3-yl)-4-(4,6-dimethoxypyrimidin-5-yl)-4H-1,2,4-triazol-3-yl)-1-(5-chloropyrimidin-2-yl)-1-methoxypropane-2-sulfonamide] | 27 |
| COc1cccc(OC)c1-n1c(NS(=O)(=O)[C@@H](C)[C@H](OC)c2ncc(Cl)cn2)nnc1-c1n[nH]c2ccccc12 [Example 421.0, (1R,2S)-1-(5-chloropyrimidin-2-yl)-N-(4-(2,6-dimethoxyphenyl)-5-(1H-indazol-3-yl)-4H-1,2,4-triazol-3-yl)-1-methoxypropane-2-sulfonamide] | 4.5 |
| COc1cccc(OC)c1-n1c(NS(=O)(=O)[C@@H](C)[C@H](OC)c2ncc(Cl)cn2)nnc1-c1n[nH]c2ccc(Cl)cc12 [Example 422.0, (1R,2S)-N-(5-(5-chloro-1H-indazol-3-yl)-4-(2,6-dimethoxyphenyl)-4H-1,2,4-triazol-3-yl)-1-(5-chloropyrimidin-2-yl)-1-methoxypropane-2-sulfonamide] | 6.2 |
| COc1cccc(OC)c1-n1c(NS(=O)(=O)[C@@H](C)[C@H](OC)c2ncc(Cl)cn2)nnc1-c1cnn2ccccc12 [Example 423.0, (1R,2S)-1-(5-chloropyrimidin-2-yl)-N-(4-(2,6-dimethoxyphenyl)-5-(pyrazolo [1,5-a]pyridin-3-yl)-4H-1,2,4-triazol-3-yl)-1-methoxypropane-2-sulfonamide] | 0.68 |
| COc1cccc(OC)c1-n1c(NS(=O)(=O)[C@@H](C)[C@H](OC)c2ncc(C)cn2)nnc1-c1cc(C2CC2)on1 [Example 424.0, (1R,25)-N-(5-(5-cyclopropylisoxazol-3-yl)-4-(2,6-dimethoxyphenyl)-4H-1,2,4-triazol-3-yl)-1-methoxy-1-(5-methylpyrimidin-2-yl)propane-2-sulfonamide] | 21 |
| COc1cccc(OC)c1-n1c(NS(=O)(=O)[C@@H](C)[C@H](OC)c2ncc(C)cn2)nnc1-c1cc(C)on1 [Example 425.0, (1R,25)-N-(4-(2,6-dimethoxyphenyl)-5-(5-methylisoxazol-3-yl)-4H-1,2,4-triazol-3-yl)-1-sulfonamide] | 8.1 |
| COc1ncnc(OC)c1-n1c(NS(=O)(=O)[C@@H](C)[C@H](C)c2ncc(Cl)cn2)nnc1-c1n[nH]c2ccccc12 [Example 426.0, (2S,3R)-3-(5-chloropyrimidin-2-yl)-N-(4-(4,6-dimethoxypyrimidin-5-yl)-5-(1H-indazol-3-yl)-4H-1,2,4-triazol-3-yl)butane-2-sulfonamide] | 14 |
| COc1ncnc(OC)c1-n1c(NS(=O)(=O)[C@@H](C)[C@H](C)c2ncc(C)cn2)nnc1-c1n[nH]c2ccccc12 [Example 427.0, (2S,3R)-N-(4-(4,6-dimethoxypyrimidin-5-yl)-5-(1H-indazol-3-yl)-4H-1,2,4-triazol-3-yl)-3-(5-methylpyrimidin-2-yl)butane-2-sulfonamide] | 21 |
| COc1cccc(OC)c1-n1c(NS(=O)(=O)[C@@H](C)[C@H](OC)c2ncc(Cl)cn2)nnc1-c1c(C)nc2ccccn12 [Example 428.0, (1R,25)-1-(5-chloropyrimidin-2-yl)-N-(4-(2,6-dimethoxyphenyl)-5-(2-methylimidazo[1,2-a]pyridin-3-yl)-4H-1,2,4-triazol-3-yl)-1-methoxypropane-2-sulfonamide] | 120 |
| COc1cccc(OC)c1-n1c(NS(=O)(=O)[C@@H](C)[C@H](C)c2ncc(Cl)cn2)nnc1-c1n[nH]c2ccccc12 [Example 429.0] | 7.6 |
| COc1cccc(OC)c1-n1c(NS(=O)(=O)[C@H](C)[C@@H](C)c2ncc(Cl)cn2)nnc1-c1n[nH]c2ccccc12 [Example 430.0] | 2.8 |
| COc1cccc(OC)c1-n1c(NS(=O)(=O)[C@H](C)[C@@H](C)c2ncc(C)cn2)nnc1-c1n[nH]c2ccccc12 [Example 431.0, (2R,3S)-N-(4-(2,6-dimethoxyphenyl)-5-(1H-indazol-3-yl)-4H-1,2,4-triazol-3-yl)-3-(5-methylpyrimidin-2-yl)butane-2-sulfonamide] | 14 |
| COc1ncnc(OC)c1-n1c(NS(=O)(=O)[C@@H](C)[C@H](C)c2ncc(Cl)cn2)nnc1-c1nn(C)c2ccc(C)cc12 [Example 433.0, (2S,3R)-3-(5-chloropyrimidin-2-yl)-N-(4-(4,6-dimethoxypyrimidin-5-yl)-5-(1,5-dimethyl-1H-indazol-3-yl)-4H-1,2,4-triazol-3-yl)butane-2-sulfonamide] | 0.84 |
| COc1cccc(OC)c1-n1c(NS(=O)(=O)[C@@H](C)[C@H](OC)c2ncc(Cl)cn2)nnc1-c1ncnc2cc[nH]c12 [Example 434.0, (1R,2S)-1-(5-chloropyrimidin-2-yl)-N-(4-(2,6-dimethoxyphenyl)-5-(5H-pyrrolo[3,2-d]pyrimidin-4-yl)-4H-1,2,4-triazol-3-yl)-1-methoxypropane-2-sulfonamide] | 8.6 |
| COc1cccc(OC)c1-n1c(NS(=O)(=O)[C@@H](C)[C@H](OC)c2ncc(C)cn2)nnc1-c1ncnc2cc[nH]c12 [Example 435.0, (1R,2S)-N-(4-(2,6-dimethoxyphenyl)-5-(5H-pyrrolo[3,2-d]pyrimidin-4-yl)-4H-1,2,4-triazol-3-yl)-1-methoxy-1-(5-methylpyrimidin-2-yl)propane-2-sulfonamide] | 180 |
| COc1cccc(OC)c1-n1c(NS(=O)(=O)[C@@H](C)[C@H](OC)c2ncc(C)cn2)nnc1-c1nn(C)c2ccccc12 [Example 436.0, (1R,2S)-N-(4-(2,6-dimethoxyphenyl)-5-(1-methyl-1H-indazol-3-yl)-4H-1,2,4-triazol-3-yl)-1-methoxy-1-(5-methylpyrimidin-2-yl)propane-2-sulfonamide] | 0.81 |
| COc1cccc(OC)c1-n1c(NS(=O)(=O)[C@@H](C)[C@H](OC)c2ncc(C)cn2)nnc1-c1n[nH]c2ccc(F)cc12 [Example 437.0] | 190 |
| COc1cccc(OC)c1-n1c(NS(=O)(=O)[C@@H](C)[C@H](C)c2ncc(Cl)cn2)nnc1-c1n[nH]c2c1CCCC2 [Example 438.0, (2S,3R)-3-(5-chloropyrimidin-2-yl)-N-(4-(2,6-dimethoxyphenyl)-5-(4,5,6,7-tetrahydro-1H-indazol-3-yl)-4H-1,2,4-triazol-3-yl)butane-2-sulfonamide] | 9.1 |
| COc1ncnc(OC)c1-n1c(NS(=O)(=O)[C@@H](C)[C@H](OC)c2ncc(Cl)cn2)nnc1-c1cnn2ccccc12 [Example 439.0, (1R,2S)-1-(5-chloropyrimidin-2-yl)-N-(4-(4,6-dimethoxypyrimidin-5-yl)-5-(pyrazolo[1,5-a]pyridin-3-yl)-4H-1,2,4-triazol-3-yl)-1-methoxypropane-2-sulfonamide] | 0.82 |
| COc1ncnc(OC)c1-n1c(NS(=O)(=O)[C@@H](C)[C@H](C)c2ncc(Cl)cn2)nnc1-c1cnn2ccccc12 [Example 440.0, (2S,3R)-3-(5-chloropyrimidin-2-yl)-N-(4-(4,6-dimethoxypyrimidin-5-yl)-5-(pyrazolo[1,5-a]pyridin-3-yl)-4H-1,2,4-triazol-3-yl)butane-2-sulfonamide] | 0.96 |
| COc1cccc(OC)c1-n1c(NS(=O)(=O)[C@@H](C)[C@H](C)c2ncc(Cl)cn2)nnc1-c1noc2c1CCCC2 [Example 441.0, (2S,3R)-3-(5-chloropyrimidin-2-yl)-N-(4-(2,6-dimethoxyphenyl)-5-(4,5,6,7-tetrahydrobenzo[d]isoxazol-3-yl)-4H-1,2,4-triazol-3-yl)butane-2-sulfonamide] | 0.33 |
| CO[C@H]1CCC[C@@H](OC)C1n1c(NS(=O)(=O)[C@@H](C)[C@H](C)c2ncc(Cl)cn2)nnc1-c1cnn2ccccc12 (stereo partly drawn) [Example 442.0, (2S,3R)-3-(5-chloropyrimidin-2-yl)-N-(4-((1r,2R,6S)-2,6-dimethoxycyclohexyl)-5-(pyrazolo[1,5-a]pyridin-3-yl)-4H-1,2,4-triazol-3-yl)butane-2-sulfonamide] | 190 |
| COc1cccc(OC)c1-n1c(NS(=O)(=O)[C@H](C)[C@@H](C)c2ncc(Cl)cn2)nnc1-c1ccn(C)n1 [Example 443.0, (2R,3S)-3-(5-chloropyrimidin-2-yl)-N-(4-(2,6-dimethoxyphenyl)-5-(1-methyl-1H-pyrazol-3-yl)-4H-1,2,4-triazol-3-yl)butane-2-sulfonamide] | 6.4 |
